From patent US20260041652A1, “SYSTEM AND METHOD FOR PREVENTING ALOPECIA” (Follea International, priority 2024, published 2026)

System: scalp hair follicles
Experiment: Epilation force measured with trichotillometer vs placebo (Example 5)
Type: in vivo, human
Settings: 10% solution vs placebo, average of 10 subjects; listed as 10% PE
Method: To evaluate the effect of a topically applied α1-AR agonist on the force required to pluck hairs from the scalp, a hand-held spring dynamometer, or “trichotillometer” was used (8). The trichotillometer records the maximum force threshold, in grams, required to pluck a single hair from the scalp; the performance and statistical variance of the instrument have been reported previously (8-10). Force measurements were performed using the trichotillometer on 10 subjects. The frontal area of scalp was divided into two 8×10 cm2 areas. On the right side 0.5 mL of a placebo vehicle was applied. […] After 45 minutes, ten hairs were plucked from each of the target areas with the trichotillometer.

## CNC[C@H](O)c1cccc(O)c1 [phenylephrine]
  average increase of epilation force threshold: 172%
